Assay: xn = mol fraction of the nth substance listed
Details: 101 kPa, Liquid, Vibrating tube method

CCC(=O)O [propanoic acid] + CCC(C)O
mass density [kg/m3]
Details | 283.15 K | 293.15 K | 303.15 K | 313.15 K | 323.15 K | 333.15 K
x1 = 0.082 | 819.64 | 815.41 | 811.1 | 802.26 | 793.05 | 783.48
x1 = 0.1717 | 834.26 | 829.91 | 825.51 | 816.5 | 807.2 | 797.57
x1 = 0.2442 | 846.52 | 842.08 | 837.6 | 828.46 | 819.08 | 809.41
x1 = 0.32 | 859.63 | 855.12 | 850.56 | 841.3 | 831.82 | 822.11
x1 = 0.4004 | 873.99 | 869.39 | 864.76 | 855.37 | 845.79 | 836
x1 = 0.4773 | 887.98 | 883.3 | 878.59 | 869.08 | 859.4 | 849.54
x1 = 0.5609 | 903.61 | 898.85 | 894.07 | 884.41 | 874.61 | 864.65
x1 = 0.6404 | 918.81 | 913.96 | 909.09 | 899.28 | 889.36 | 879.3
x1 = 0.7186 | 934.19 | 929.25 | 924.29 | 914.32 | 904.27 | 894.07
x1 = 0.8009 | 950.85 | 945.79 | 940.74 | 930.57 | 920.34 | 910.02
x1 = 0.8776 | 966.89 | 961.72 | 956.55 | 946.17 | 935.75 | 925.26
x1 = 0.9593 | 984.54 | 979.23 | 973.9 | 963.26 | 952.61 | 941.92

CCC(C)(C)O [2-methylbutan-2-ol] + CCC(=O)O
mass density [kg/m3]
Details | 283.15 K | 293.15 K | 303.15 K | 313.15 K | 323.15 K | 333.15 K
x2 = 0.0822 | 819.84 | 815.21 | 810.53 | 801.01 | 791.2 | 781.09
x2 = 0.16 | 830.58 | 825.94 | 821.26 | 811.74 | 801.99 | 791.96
x2 = 0.2419 | 842.49 | 837.85 | 833.18 | 823.69 | 814 | 804.06
x2 = 0.3189 | 854.39 | 849.75 | 845.08 | 835.62 | 825.96 | 816.07
x2 = 0.4024 | 868.02 | 863.37 | 858.68 | 849.19 | 839.53 | 829.68
x2 = 0.4806 | 881.53 | 876.85 | 872.13 | 862.6 | 852.91 | 843.03
x2 = 0.5588 | 895.71 | 890.97 | 886.21 | 876.6 | 866.84 | 856.93
x2 = 0.6429 | 911.85 | 907.05 | 902.23 | 892.5 | 882.64 | 872.64
x2 = 0.7218 | 927.93 | 923.03 | 918.13 | 908.25 | 898.28 | 888.18
x2 = 0.785 | 941.5 | 936.52 | 931.53 | 921.51 | 911.41 | 901.2
x2 = 0.8812 | 963.57 | 958.43 | 953.3 | 942.98 | 932.62 | 922.2
x2 = 0.9561 | 982.1 | 976.8 | 971.51 | 960.92 | 950.3 | 939.64

CC(=O)O [acetic acid] + CCC(C)O
mass density [kg/m3]
Details | 293.15 K | 298.15 K | 303.15 K | 313.15 K | 323.15 K | 333.15 K
x1 = 0.0822 | 819.04 | 814.82 | 810.53 | 801.69 | 792.5 | 782.93
x1 = 0.1628 | 832.16 | 827.83 | 823.44 | 814.46 | 805.17 | 795.54
x1 = 0.2395 | 845.65 | 841.23 | 836.76 | 827.62 | 818.22 | 808.51
x1 = 0.321 | 861.12 | 856.58 | 852 | 842.7 | 833.16 | 823.36
x1 = 0.3979 | 876.8 | 872.17 | 867.49 | 858.02 | 848.33 | 838.39
x1 = 0.4759 | 893.89 | 889.16 | 884.37 | 874.69 | 864.83 | 854.77
x1 = 0.5611 | 914 | 909.12 | 904.22 | 894.32 | 884.26 | 874
x1 = 0.6399 | 934.04 | 929.04 | 924.01 | 913.87 | 903.62 | 893.19
x1 = 0.7197 | 955.97 | 950.84 | 945.68 | 935.3 | 924.81 | 914.19
x1 = 0.8003 | 980.06 | 974.78 | 969.49 | 958.84 | 948.1 | 937.26
x1 = 0.8796 | 1005.8 | 1000.35 | 994.91 | 983.99 | 973.01 | 961.97
x1 = 0.9365 | 1025.67 | 1020.12 | 1014.58 | 1003.46 | 992.31 | 981.11
x1 = 0.9586 | 1033.71 | 1028.12 | 1022.54 | 1011.36 | 1000.14 | 988.87

CCC(C)(C)O [2-methylbutan-2-ol] + CC(=O)O
mass density [kg/m3]
Details | 283.15 K | 293.15 K | 303.15 K | 313.15 K | 323.15 K | 333.15 K
x2 = 0.0794 | 819.64 | 814.95 | 810.22 | 800.6 | 790.72 | 780.53
x2 = 0.0827 | 820.07 | 815.38 | 810.64 | 801.02 | 791.14 | 780.94
x2 = 0.1664 | 832.07 | 827.35 | 822.59 | 812.92 | 803.02 | 792.86
x2 = 0.1672 | 832.17 | 827.45 | 822.69 | 813.02 | 803.12 | 792.96
x2 = 0.2361 | 842.73 | 838.01 | 833.24 | 823.57 | 813.68 | 803.54
x2 = 0.3176 | 856.35 | 851.61 | 846.84 | 837.15 | 827.25 | 817.14
x2 = 0.3914 | 869.87 | 865.1 | 860.3 | 850.57 | 840.64 | 830.51
x2 = 0.4798 | 887.62 | 882.8 | 877.94 | 868.11 | 858.1 | 847.89
x2 = 0.5577 | 904.94 | 900.05 | 895.12 | 885.16 | 875.04 | 864.74
x2 = 0.6427 | 925.88 | 920.88 | 915.86 | 905.72 | 895.44 | 885.01
x2 = 0.7195 | 946.94 | 941.83 | 936.71 | 926.37 | 915.92 | 905.33
x2 = 0.7999 | 971.66 | 966.42 | 961.16 | 950.58 | 939.91 | 929.13
x2 = 0.8769 | 998.52 | 993.12 | 987.72 | 976.88 | 965.96 | 954.98
x2 = 0.96 | 1031.62 | 1026.04 | 1020.47 | 1009.32 | 998.13 | 986.89

CCC(=O)O [propanoic acid] + CC(C)CO
mass density [kg/m3]
Details | 283.15 K | 293.15 K | 303.15 K | 313.15 K | 323.15 K | 333.15 K
x1 = 0.0803 | 815.48 | 811.49 | 807.47 | 799.27 | 790.86 | 782.19
x1 = 0.1616 | 829.5 | 825.39 | 821.25 | 812.83 | 804.2 | 795.34
x1 = 0.2482 | 844.79 | 840.55 | 836.28 | 827.63 | 818.79 | 809.74
x1 = 0.3212 | 857.93 | 853.59 | 849.22 | 840.38 | 831.37 | 822.15
x1 = 0.4008 | 872.54 | 868.09 | 863.61 | 854.56 | 845.37 | 836
x1 = 0.4828 | 887.9 | 883.34 | 878.76 | 869.5 | 860.12 | 850.57
x1 = 0.5602 | 902.63 | 897.96 | 893.27 | 883.83 | 874.27 | 864.57
x1 = 0.6413 | 918.47 | 913.69 | 908.9 | 899.25 | 889.49 | 879.62
x1 = 0.7201 | 934.21 | 929.32 | 924.42 | 914.55 | 904.62 | 894.59
x1 = 0.8016 | 950.86 | 945.84 | 940.81 | 930.72 | 920.57 | 910.32
x1 = 0.8777 | 966.86 | 961.72 | 956.56 | 946.23 | 935.86 | 925.44
x1 = 0.9586 | 984.47 | 979.16 | 973.84 | 963.22 | 952.58 | 941.92

CC(C)CO [2-methyl-1-propanol] + CC(=O)O
mass density [kg/m3]
Details | 293.15 K | 298.15 K | 303.15 K | 313.15 K | 323.15 K | 333.15 K
x2 = 0.0813 | 814.94 | 810.95 | 806.92 | 798.73 | 790.31 | 781.64
x2 = 0.1574 | 827.82 | 823.71 | 819.56 | 811.15 | 802.54 | 793.68
x2 = 0.2405 | 842.93 | 838.69 | 834.42 | 825.76 | 816.92 | 807.86
x2 = 0.319 | 858.14 | 853.78 | 849.39 | 840.5 | 831.45 | 822.19
x2 = 0.4018 | 875.36 | 870.87 | 866.35 | 857.21 | 847.92 | 838.44
x2 = 0.4803 | 892.9 | 888.27 | 883.63 | 874.24 | 864.7 | 855.01
x2 = 0.5599 | 911.99 | 907.22 | 902.44 | 892.78 | 883 | 873.07
x2 = 0.6396 | 932.48 | 927.56 | 922.63 | 912.7 | 902.65 | 892.49
x2 = 0.7199 | 954.87 | 949.79 | 944.71 | 934.47 | 924.16 | 913.72
x2 = 0.7998 | 979.04 | 973.8 | 968.56 | 958.02 | 947.4 | 936.71
x2 = 0.8786 | 1004.98 | 999.57 | 994.16 | 983.31 | 972.4 | 961.43
x2 = 0.9595 | 1033.93 | 1028.35 | 1022.77 | 1011.59 | 1000.4 | 989.16

— the NIST ThermoML archive (doi:10.1021/je201102x)
